{"source": "patent US12383500B2", "about": "“Nanoliposome compositions and methods of using the same” (United States Government as represented by the Department …, priority 2018, dated 2025)", "key": {"human umbilical vein ECs [1]": {"tested_on": "human umbilical vein ECs", "assay": "Endothelial cell immune activation (gene and protein expression of IL-8, IL-6, ICAM-1, PAI-1)", "assay_type": "cell-based", "description": "(§1) Endothelial cell immune activation. Primary culture human umbilical vein ECs (passages 4-8, Lonza, Walkersville MD) were seeded into 6-well plates and grown to full confluence. Human umbilical vein ECs have been extensively used to study vascular cell behavior in neurodegenerative disease studies such as AD and VaD as they show similarity in properties as brain ECs, including Aβ metabolism^23, 24, expression of tight junction proteins^25 and metabolic interactions with neural cells^26. ECs were exposed to 20 hours of vehicle or medin (5 μM, dose chosen as this was the mean medin concentration found in human vascular tissue) without or with NLGM1 (300 μM). Additional replicates were also treated with NLGM1 (300 μM) plus transcription factor nuclear factor erythroid 2-related factor 2 (Nrf2) inhibitor brusatol (1 μM). EC immune activation was assessed using gene and protein expressions of inflammation-related cytokines/chemokines interleukin (IL)-8, IL-6, intercellular adhesion molecule (ICAM)-1) and plasminogen activator inhibitor (PAI)-1 (primers from IDT DNA Technologies, Coralville IL)^6, 16. Following lysis, RNA was extracted and converted to cDNA using Aurum Total RNA Mini Kit and iScript cDNA synthesis kit (Bio-Rad Laboratories, Coralville IA) with β-actin as reference normalization gene normalization. […] The conditioned cell media from treated ECs were analyzed for IL-8 and IL-6 protein by enzyme linked immunosorbent assay (ELISA) using DuoSet kit (R&D Systems, Minneapolis MN). ICAM-1 protein was measured from whole cell lysate using ICAM-1 ELISA kit (R&D Systems). PAI-1 and phosphorylated NFκB (phospho-NFκB p65, Ser536, 93H1) proteins were measured using Western blot (1:500, Cell Signaling Technology, Danvers MA)."}, "[2]": {"tested_on": "human adipose and leptomeningeal arterioles", "assay": "Endothelial function of human arterioles exposed to medin", "settings": "medin 1 μM; Aβ42 0.5 μM"}, "human umbilical vein ECs [3]": {"tested_on": "human umbilical vein ECs", "assay_type": "cell-based", "settings": "medin + NLGM1 + brusatol (1 μM)"}, "human umbilical vein ECs [4]": {"tested_on": "human umbilical vein ECs", "assay": "Endothelial cell oxidative stress (superoxide, dihydroethidium fluorescence)", "assay_type": "cell-based"}, "Nrf2": {"tested_on": "Nrf2", "assay": "Nuclear Nrf2, HO-1 and NQO1 protein in ECs, Western blot", "assay_type": "cell-based, human", "description": "Activated Nrf-2 protein was measured by separating the nuclear from cytosolic components using NE-PER Nuclear and Cytoplasmic Extraction kit (Thermo Scientific, Rockford IL) and using anti-Nrf2 primary antibody (1:500, Cell Signaling) on nuclear proteins using Western blot with tubulin as loading control. Heme oxygenase (HO)-1 and NAD(P)H Quinone dehydrogenase 1 (NQO1) proteins were measured from whole cell lysates using anti-HO-1 (1:1000, Cell Signaling Technology) and anti-NQO1 (1:1000, Cell Signaling) primary antibodies."}, "[5]": {"tested_on": "adipose arterioles exposed to amyloid LC proteins", "assay": "Endothelial function (max response to acetylcholine) of adipose arterioles exposed to amyloid LC proteins", "parameters": "species or system human", "settings": "NLs conjugated with clusterin (300 ng/mL), control 91.6±2%", "description": "Attempts to formulate NLs (cholesterol and phosphatidylcholine) that are conjugated with clusterin (300 ng/mL), both non-covalently as well as covalently through PEGylation, was successful."}, "[6]": {"tested_on": "adipose arterioles exposed to amyloid LC proteins", "settings": "LC from AL light chain amyloidosis patients; cited from earlier work"}, "NFκB": {"tested_on": "NFκB", "assay": "NFκB activation (phosphorylated NFκB) in ECs, Western blot", "assay_type": "cell-based, human", "settings": "post-exposure to medin", "description": "as §1"}, "Human primary astrocytes": {"tested_on": "Human primary astrocytes", "assay": "Astrocyte monoculture IL-8 production", "assay_type": "cell-based", "settings": "astrocytes exposed 20 hours to conditioned media from medin (5 μM)-treated ECs", "description": "Astrocyte monoculture. Human primary astrocytes (passage 3, Gibco, Madison WI) were seeded in gelatin matrix (4×10^4 cells/cm^2) coated plates, allowed to attach overnight and exposed for 20 hours to vehicle, medin (5 μM), conditioned media from vehicle-treated ECs (10% vol/vol exchange) or conditioned media from medin (5 μM)-treated ECs. Conditioned media IL-8 were measured by ELISA."}, "[7]": {"tested_on": "Human primary astrocytes with human umbilical vein ECs", "assay": "3D chip astrocyte and endothelial cell coculture IL-8", "assay_type": "cell-based", "settings": "medin treated chips with ECs compared to medin treated chips without ECs; 20 hours", "from_the_text": "Microfluidic chip fabrication and 3D chip astrocyte and endothelial cell coculture. The microfluidic platform was fabricated in polydimethylsiloxane (PDMS) using standard SU-8 photolithography and replica molding technique, consisting of two side channels for seeding of endothelial cells (ECs) and a central region for astrocyte culture. The dimensions of the side channels' (length, width and height, are 4 mm, 250 μm and 200 μm respectively. The width of the 3D central region is 2 mm Elliptical micro-posts were localized within the central tissue region (500 um width, 100 um height) with specific micro-post spacing to optimize alignment of the astrocytes, while maintaining cellular connectivity and paracrine signaling. Creation of the master silicon wafer through photolithography was executed through spin-coating of SU-8 on a wafer to a height of 200 μm. The wafer was soft-baked, then exposed to UV through a transparent photomask with the chip design. After post-baking, the developed wafer was used as the substrate for soft lithography with PDMS replica molding. A PDMS base: curing agent ratio of 10:1 was used. Then, the PDMS channels were bonded to glass slides through oxygen plasma. […]\nHuman umbilical vein ECs were seeded into the side channels (2×10^6 cells/mL in EC media) overnight. […] Conditioned media IL-8 were measured using ELISA."}, "[8]": {"settings": "ECs 20 hours, medin 5 μM without or with co-treatment"}, "[9]": {"settings": "medin + NLGM1 + brusatol (1 μM)"}, "[10]": {"settings": "ECs 20 hours, medin 5 μM without or with co-treatment, ELISA of conditioned media"}}, "data": [{"molecule": "[O-][S+](c1ccccc1)c1ccc2nnnn2n1", "note": "(stereo not shown) [RO106-9920, reference compound]", "values": [{"measurement": "EC ICAM-1 gene expression", "setting": "human umbilical vein ECs [1]; [8]", "result": "abolished"}, {"measurement": "EC IL-6 gene expression", "setting": "human umbilical vein ECs [1]; [8]", "result": "abolished"}, {"measurement": "EC IL-8 gene expression", "setting": "human umbilical vein ECs [1]; [8]", "result": "abolished"}, {"measurement": "EC PAI-1 gene expression", "setting": "human umbilical vein ECs [1]; [8]", "result": "abolished"}]}, {"molecule": "Aβ42: beta amyloid peptide", "values": [{"measurement": "endothelial and smooth muscle dysfunction compared to control response", "setting": "[2]", "result": "caused endothelial, but not smooth muscle dysfunction"}]}, {"molecule": "brusatol", "values": [{"measurement": "protective effect of NLGM1 against medin-induced EC immune activation", "setting": "human umbilical vein ECs [1]; medin + NLGM1 + brusatol (1 μM), FIG. 8H-K", "result": "did not abolish"}, {"measurement": "protective effect of NLGM1 in terms of cell viability", "setting": "human umbilical vein ECs [3]", "result": "reversed"}, {"measurement": "protective effect of NLGM1 on medin-induced superoxide production", "setting": "human umbilical vein ECs [4]; [9]", "result": "abolished"}, {"measurement": "increase in HO-1 by NLGM1 co-treatment with medin", "setting": "Nrf2; [9]", "result": "abolished"}, {"measurement": "increase in NQO1 by NLGM1 co-treatment with medin", "setting": "Nrf2; [9]", "result": "abolished"}]}, {"molecule": "free clusterin: 80-kDa chaperone glycoprotein; sCLU isoform, commercial human recombinant clusterin protein", "values": [{"measurement": "max response to acetylcholine", "setting": "[5]", "result": "86.4±3.9", "unit": "%"}, {"measurement": "endothelial dysfunction in human arterioles exposed to amyloidogenic light chain (LC) proteins", "setting": "[6]", "result": "reversed"}]}, {"molecule": "medin: recombinant 50-amino acid amyloid peptide, cleavage product of milk fat globule-EGF factor 8 protein", "values": [{"measurement": "endothelial and smooth muscle dysfunction compared to control response", "setting": "[2]", "result": "caused endothelial, but not smooth muscle dysfunction"}, {"measurement": "EC ICAM-1 gene expression", "setting": "human umbilical vein ECs [1]; [8]", "result": "increased"}, {"measurement": "EC IL-6 gene expression", "setting": "human umbilical vein ECs [1]; [8]", "result": "increased"}, {"measurement": "EC IL-8 gene expression", "setting": "human umbilical vein ECs [1]; [8]", "result": "increased"}, {"measurement": "EC PAI-1 gene expression", "setting": "human umbilical vein ECs [1]; [8]", "result": "increased"}, {"measurement": "EC IL-6 protein expression", "setting": "human umbilical vein ECs [1]; [10]", "result": "increased"}, {"measurement": "EC IL-8 protein expression", "setting": "human umbilical vein ECs [1]; [10]", "result": "increased"}, {"measurement": "EC ICAM-1 protein expression", "setting": "human umbilical vein ECs [1]; ECs 20 hours, medin 5 μM without or with co-treatment, ELISA of whole cell lysate", "result": "increased"}, {"measurement": "EC PAI-1 protein expression", "setting": "human umbilical vein ECs [1]; ECs 20 hours, medin 5 μM without or with co-treatment, Western blot", "result": "increased"}, {"measurement": "NFκB activation (phosphorylated NFκB) in ECs, peak", "setting": "NFκB", "result": 1, "unit": "h"}, {"measurement": "NFκB activation (phosphorylated NFκB) in ECs, persistence", "setting": "NFκB", "result": 20, "unit": "h"}, {"measurement": "NFκB activation (phosphorylated NFκB) in ECs, start", "setting": "NFκB", "result": 15, "unit": "min"}, {"measurement": "EC superoxide production", "setting": "human umbilical vein ECs [4]; ECs 20 hours, medin without or with NLGM1", "result": "increased"}, {"measurement": "nuclear Nrf2 (Nrf2 activation)", "setting": "Nrf2; ECs treated with the substance alone", "result": "no accompanying Nrf2 activation"}, {"measurement": "astrocyte IL-8 production", "setting": "Human primary astrocytes", "result": "significant increase"}, {"measurement": "astrocyte media IL-8", "setting": "[7]", "result": "significantly higher"}]}]}
